Literature values in patent publication US20070213332A1, “Prodrugs Of Substituted Amino Heterobicycles Which Modulate The Function Of The Vanilloid-1 Receptor (Vr1)” (priority 2004, published 2007).

Target: VR1 (Rattus norvegicus, UniProt O35433)
Settings: Walpole et al., J. Med. Chem., 37:1942, 1994

Sequence of VR1 (O35433 whole entry): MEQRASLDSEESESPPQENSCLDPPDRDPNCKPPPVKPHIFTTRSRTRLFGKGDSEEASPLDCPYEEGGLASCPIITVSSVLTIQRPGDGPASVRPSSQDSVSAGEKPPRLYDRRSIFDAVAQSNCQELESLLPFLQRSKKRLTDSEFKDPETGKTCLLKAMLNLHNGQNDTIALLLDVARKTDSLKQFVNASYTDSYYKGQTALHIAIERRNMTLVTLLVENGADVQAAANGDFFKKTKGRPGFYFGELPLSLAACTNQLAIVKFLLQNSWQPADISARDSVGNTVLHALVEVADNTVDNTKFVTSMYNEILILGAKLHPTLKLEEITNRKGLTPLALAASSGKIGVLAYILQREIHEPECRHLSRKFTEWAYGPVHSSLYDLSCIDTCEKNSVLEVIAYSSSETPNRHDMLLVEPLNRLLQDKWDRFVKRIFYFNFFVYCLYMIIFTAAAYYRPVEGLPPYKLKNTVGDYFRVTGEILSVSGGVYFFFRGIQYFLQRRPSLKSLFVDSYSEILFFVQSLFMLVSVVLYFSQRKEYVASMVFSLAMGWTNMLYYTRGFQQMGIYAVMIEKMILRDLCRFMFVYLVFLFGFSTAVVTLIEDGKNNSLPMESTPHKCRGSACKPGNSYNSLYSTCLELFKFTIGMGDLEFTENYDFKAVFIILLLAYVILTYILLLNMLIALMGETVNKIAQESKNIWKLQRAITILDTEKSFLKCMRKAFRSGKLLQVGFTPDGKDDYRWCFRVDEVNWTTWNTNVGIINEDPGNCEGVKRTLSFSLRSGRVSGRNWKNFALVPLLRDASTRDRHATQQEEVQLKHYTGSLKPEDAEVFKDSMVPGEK

- IC50: 420 nM
SMILES: Oc1cc2c(cc1O)CN(C(=S)NCCc1ccc(Cl)cc1)CCC2 [capsazepine]
